According to patent US8471063B2, “Michael systems as transglutaminase inhibitors” (Zedira GmbH, priority 2006, dated 2013):
*1 amine or outer side, *2 acyl side, *3 side chain or, on linkers, in order; H or OH if unused. Where a SMILES comes first, the peptide text is derived from it. [ ]: non-standard residue; d: D form. The star is where a group is joined. Nle(5E-ene,6-CO2Et) = CCOC(=O)/C=C/CC[C@H](N)C(=O)O; X7 = O=C(/C=C/CC[C@H](N[*:1])C(=O)[*:2])OCc1ccccc1; Tic = O=C(O)[C@@H]1Cc2ccccc2CN1; Cbz = O=C(OCc1ccccc1)*

Columns and labels:
Type in all cases: biochemical
[1] = target: T1, recombinant human tissue transglutaminase (His6-rh-TG2) (Homo sapiens, UniProt P21980); assay: Inactivation of human tissue transglutaminase, fluorescence assay, IC50; settings: 5 min preincubation, 37° C.
T1 sequence (P21980 1-687): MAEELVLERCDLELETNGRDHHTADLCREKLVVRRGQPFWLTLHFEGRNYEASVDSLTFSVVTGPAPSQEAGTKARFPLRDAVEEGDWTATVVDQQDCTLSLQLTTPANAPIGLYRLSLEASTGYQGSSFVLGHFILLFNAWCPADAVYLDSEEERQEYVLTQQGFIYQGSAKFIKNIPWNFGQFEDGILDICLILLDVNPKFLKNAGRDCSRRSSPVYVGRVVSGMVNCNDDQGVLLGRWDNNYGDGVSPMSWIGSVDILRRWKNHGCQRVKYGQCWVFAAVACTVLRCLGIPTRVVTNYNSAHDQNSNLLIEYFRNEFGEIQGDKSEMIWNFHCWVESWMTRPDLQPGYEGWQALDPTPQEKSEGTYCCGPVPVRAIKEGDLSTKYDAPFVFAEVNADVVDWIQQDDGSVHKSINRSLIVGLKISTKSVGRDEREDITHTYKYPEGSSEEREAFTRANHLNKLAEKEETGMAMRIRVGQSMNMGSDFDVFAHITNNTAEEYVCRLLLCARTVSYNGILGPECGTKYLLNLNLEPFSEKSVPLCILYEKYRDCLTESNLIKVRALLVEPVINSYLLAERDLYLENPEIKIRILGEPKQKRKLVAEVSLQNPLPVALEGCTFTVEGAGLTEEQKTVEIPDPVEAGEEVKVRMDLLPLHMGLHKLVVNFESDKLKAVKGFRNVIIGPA
Method: 250 μg of lyophilized his-tagged recombinant human tissue transglutaminase (His6-rh-TG2) are reconstituted by the addition of 150 μl of water (resulting buffer 50 mM of NaH2PO4, 150 mM of NaCl, pH=8).
A 10 mM inhibitor stock solution in DMSO is prepared and diluted with buffer (50 mM of Tris-HCl, 10 mM of CaCl2, 5 mM of DTT, pH=7.5, respectively) to the 20-fold of the concentration desired for the inhibition mixture (at least 1/50 dilution resulting in 2% DMSO concentration).
900 μl of an assay solution composed of 55.56 mM of Tris, 11.11 mM of CaCl2, 0.11% PEG8000, 5.56 mM of DTT, 5.56 mM of glycine methyl ester and 50 μM of Abz-APE(CAD-DNP)QEA-OH, (patent number:), pH=7.5 are placed in a cuvette and brought to a temperature of 37° C. in the measuring cell of a spectrophotometer. 50 μl of the respective inhibitor solution are added to said solution (resulting in a concentration of less than 0.2% of DMSO in the mixture).
7 μl of the transglutaminase solution reconstituted above are diluted with 51 μl of buffer (50 mM of Tris, 100 mM of NaCl, 5 mM of DTT, pH=7.5). 50 μl of said enzyme solution (10 μg His6-rhTG2) are added to the assay solution containing the respective inhibitor concentration. The mixture is incubated for 5 min at 37° C. before the measurement is performed. λexc=313 nm and λem=418 nm, 15 min)
The resulting enzyme activity was measured by analyzing the slope of the straight line obtained by the increase in fluorescence.
DMSO is used instead of inhibitor stock solution in order to determine the non-inhibited enzyme activity. IC50 values are determined by plotting the resulting enzyme activity against the logarithm of the inhibitor concentration. IC50 is defined as the concentration of an inhibitor at which enzyme activity is reduced to 50% after 5 min of preincubation.

FXIII = target: T2, FXIII (Homo sapiens, UniProt P00488); assay: Transglutaminase inhibition, IC50 at FXIII
T2 sequence (P00488 1-732): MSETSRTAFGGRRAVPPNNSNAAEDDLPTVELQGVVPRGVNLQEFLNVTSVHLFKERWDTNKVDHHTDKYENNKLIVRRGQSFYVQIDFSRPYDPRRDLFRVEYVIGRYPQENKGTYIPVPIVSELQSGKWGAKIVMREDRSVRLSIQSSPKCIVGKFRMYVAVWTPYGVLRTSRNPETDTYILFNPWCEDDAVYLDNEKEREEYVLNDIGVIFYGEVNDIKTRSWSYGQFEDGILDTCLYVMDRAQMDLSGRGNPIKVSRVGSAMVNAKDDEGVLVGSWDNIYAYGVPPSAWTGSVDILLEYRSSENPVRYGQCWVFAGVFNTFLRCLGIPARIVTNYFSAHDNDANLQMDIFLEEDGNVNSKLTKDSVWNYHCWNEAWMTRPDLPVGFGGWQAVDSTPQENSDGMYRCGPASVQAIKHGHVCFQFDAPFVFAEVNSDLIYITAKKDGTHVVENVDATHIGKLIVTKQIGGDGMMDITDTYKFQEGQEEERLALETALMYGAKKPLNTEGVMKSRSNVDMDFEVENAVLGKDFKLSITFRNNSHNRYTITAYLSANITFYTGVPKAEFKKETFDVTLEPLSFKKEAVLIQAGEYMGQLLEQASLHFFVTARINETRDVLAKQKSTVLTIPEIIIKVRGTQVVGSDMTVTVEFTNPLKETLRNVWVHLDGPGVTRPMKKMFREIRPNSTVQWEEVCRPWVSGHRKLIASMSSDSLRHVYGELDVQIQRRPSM

TG1 = target: T3, TG1 (Homo sapiens, UniProt P22735); assay: Transglutaminase inhibition, IC50 at TG1
T3 sequence (P22735 1-817): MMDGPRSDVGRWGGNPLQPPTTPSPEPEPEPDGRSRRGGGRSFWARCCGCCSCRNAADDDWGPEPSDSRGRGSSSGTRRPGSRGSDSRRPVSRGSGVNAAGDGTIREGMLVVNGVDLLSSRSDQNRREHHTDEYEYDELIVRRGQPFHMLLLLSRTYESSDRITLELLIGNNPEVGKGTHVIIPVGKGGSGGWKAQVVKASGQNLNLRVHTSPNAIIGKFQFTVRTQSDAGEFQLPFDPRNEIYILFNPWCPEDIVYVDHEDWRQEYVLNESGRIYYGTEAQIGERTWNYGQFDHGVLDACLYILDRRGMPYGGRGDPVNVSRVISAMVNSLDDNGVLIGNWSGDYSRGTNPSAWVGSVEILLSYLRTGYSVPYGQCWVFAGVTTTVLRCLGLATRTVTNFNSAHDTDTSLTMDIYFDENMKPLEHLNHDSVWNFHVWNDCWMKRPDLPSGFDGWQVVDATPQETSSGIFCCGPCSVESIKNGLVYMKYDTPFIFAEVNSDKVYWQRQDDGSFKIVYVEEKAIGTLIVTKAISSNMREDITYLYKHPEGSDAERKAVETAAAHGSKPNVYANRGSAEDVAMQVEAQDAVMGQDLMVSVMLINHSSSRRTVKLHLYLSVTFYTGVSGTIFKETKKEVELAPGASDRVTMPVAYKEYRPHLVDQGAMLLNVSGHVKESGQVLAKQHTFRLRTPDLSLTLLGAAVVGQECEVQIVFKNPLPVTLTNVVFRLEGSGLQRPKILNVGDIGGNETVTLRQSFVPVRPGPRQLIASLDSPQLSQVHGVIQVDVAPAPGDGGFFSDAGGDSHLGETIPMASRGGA

Compound	IC50 ([1]; Table 1)	other results
CCOC(=O)/C=C/CC[C@H](NC(=O)OCc1ccccc1)C(=O)N[C@@H](CCC(N)=O)C(=O)N1CCC[C@H]1C(=O)N[C@@H](CC(C)C)C(=O)OC [Compound 2, N^α-benzyloxycarbonyl-{[(E)-(L)-6-amino-hept-2-ene-dicarboxylic acid]-1-ethanoyl}-L-glutaminyl-L-prolinyl-L-leucine methyl ester] (Cbz-[Nle(5E-ene,6-CO2Et)]QPL-OMe)	0.02 µM	IC50 (FXIII; Table 1): > 50 µM
CCOC(=O)/C=C/CC[C@H](NC(=O)OCc1ccccc1)C(=O)N[C@@H](Cc1ccccc1)C(=O)OC [Compound 3, N^α-benzyloxycarbonyl-{[(E)-(L)-6-amino-hept-2-ene-dicarboxylic acid]-1-ethanoyl}-L-phenylalanine methyl ester]	8 µM	IC50 (FXIII; Table 1): 2.5 µM; IC50 (TG1; Table 1): 0.2 µM
COC(=O)[C@H](CC(C)C)NC(=O)[C@@H]1CCCN1C(=O)[C@H](CCC(N)=O)NC(=O)[C@H](CC/C=C/S(C)(=O)=O)NC(=O)OCc1ccccc1 [Compound 3.2.1, N^α-benzyloxycarbonyl-{[(E)-(L)-2-amino-6-methanesulfonyl]-hex-5-enyl}-L-glutaminyl-L-prolinyl-L-leucine methyl ester]	–	IC50 ([1]; Table 2): 0.054 µM; IC50 (FXIII; Table 2): > 100 µM; IC50 (TG1; Table 2): 0.25 µM
COC(=O)C(CC(C)C)NC(=O)C1CCCN1C(=O)C(CCC(N)=O)NC(=O)C(CCC=CC(=O)O)NC(=O)OCc1ccccc1 [Compound 3.2.5, N^α-benzyloxycarbonyl)-[(E)-(L)-6-amino-hept-2-ene-dicarboxylic acid]-L-glutaminyl-L-prolinyl-L-leucine methyl ester]	–	IC50 ([1]; Table 2): 23 µM; IC50 (FXIII; Table 2): > 100 µM
CCOC(=O)/C=C/CC[C@@H](C(=O)N[C@H](C(=O)N1CCC[C@H]1C(=O)OC)C(C)C)N1CCCC1=O [Compound 6, [(E)-(L)-6-(2-oxo-pyrrolidon-1-yl)-hept-2-ene-dicarboxylic acid 1-ethanoyl]-L-valinyl-L-proline methyl ester]	15 µM	IC50 (FXIII; Table 1): > 50 µM
N^α-acetyl-{[(E)-(L)-6-Amino-hept-2-ene dicarboxylic acid]-1-methanoyl}-L-phenylalaninyl-L-prolinyl-L-leucine methyl ester [Compound 12]	1.8 µM	–
N^α-benzyloxycarbonyl)-[(Z)-(L)-2-amino-7-oxo-oct-5-ene-dicarboxylic acid]-L-glutaminyl-L-prolinyl-L-leucine methyl ester [Compound 3.2.10]	–	IC50 ([1]; Table 2): 56 µM
[(E)-(L)-6-(2-Oxo-pyrrolidon-1-yl)hept-2-ene-dicarboxylic acid 1-ethanoyl]-L-valinyl-L-homoprolinyl-L-leucine methyl ester [Compound 16]	22 µM	–
[(E)-(L)-6-(2-oxo-pyrrolidon-1-yl)-hept-2-ene-dicarboxylic acid-1-ethanoyl]-L-cyclohexylglycinyl-L-homoprolinyl-L-leucine methyl ester [Compound 17]	35 µM	–
[(E)-(L)-6-(2-oxo-pyrrolidon-1-yl)-hept-2-ene-dicarboxylic acid-1-ethanoyl]-L-cyclohexylglycinyl-L-prolinyl-L-leucine methyl ester [Compound 18]	28 µM	–

The next lines start with results.

IC50 ([1]; Table 1)	Compound	other results
0.35 µM	COC(=O)/C=C/CC[C@H](NC(=O)OCc1ccccc1)C(=O)N[C@@H](CCC(N)=O)C(=O)N1CCC[C@H]1C(=O)OC [Compound 4, N^α-benzyloxycarbonyl-{[(E)-(L)-6-amino-hept-2-ene-dicarboxylic acid]-1-methanoyl}-L-glutaminyl-L-proline methyl ester]	IC50 (FXIII; Table 1): > 50 µM
0.125 µM	CCOC(=O)/C=C/CC[C@H](NC(=O)OCc1ccccc1)C(=O)N[C@H](C(=O)N1CCC[C@H]1C(=O)NCCC(C)C)C(C)C [Compound 5]	IC50 (FXIII; Table 1): > 50 µM
0.215 µM	COC(=O)[C@H](CC(C)C)NC(=O)[C@@H]1Cc2ccccc2CN1C(=O)[C@H](CCC(N)=O)NC(=O)[C@H](CC/C=C/C(=O)OCc1ccccc1)NC(=O)[C@@H]1CCCN1C(=O)[C@H](CCC(N)=O)NC(=O)[C@@H]1CCCN1C(=O)OCc1ccccc1 [Compound 41] (Cbz-PQP[X7]Q[Tic]L-OMe)	–
4 µM	CC(=O)NCCC(=O)N1CCCC(C(=O)C(CC/C=C/C(=O)OC(C)C)N2Cc3nc[nH]c3CC2C(=O)NC(CNC(N)=O)C(=O)NC(CC(C)C)C(=O)N2CCCC2C(=O)NC(Cc2ccc(Oc3ccc(O)cc3)cc2)C(=O)O)C1 (centres unmarked) [Compound 42]	–
8 µM	N^α-(2-fluorobenzoyl)-{[L-7-amino-4-oxo-oct-2-ene-dicarboxylic acid]-1-methanoyl}-L-valinyl-L-4-fluoroprolinyl-leucine isopropyl ester [Compound 24]	–
0.056 µM	N^α-(5-methylisoxazol-3-carbonyl)-{[L-7-amino-4-oxo-oct-2-ene-dicarboxylic acid]-1-isopropanoyl}-L-valinyl-L-prolinyl-leucine methyl ester [Compound 23]	–
3.2 µM	N^α-benzyloxycarbonyl-{[(E)-(L)-6-amino-hept-2-ene-dicarboxylic acid]-1-ethanoyl}-L-leucinyl-L-prolinyl-L-glutamine methyl ester [Compound 21]	–
